Measured values from patent US6472369B1, “Anticancer compounds and methods” (The Regents of the University of Michigan, priority 1996, dated 2002).

How the values were obtained:
[1] = Clotting of peptide-treated blood in vivo; conditions: in vivo observation
Excerpt: In addition to using the PHSRN (SEQ ID NO:1) antagonists described above as anti-invasion chemotherapeutics, it is also contemplated that these antagonists be used as anti-thrombotics.

[2] = system: rat metastatic prostate carcinoma MatLyLu (MLL) cells; test: SU-ECM invasion assay, rat MatLyLu prostate carcinoma cells; assay type: cell-based; conditions: for inhibition of PHSRN-induced invasion of SU-ECM: serum free media, 100 ng per ml PHSRN, FIG. 7B
Protocol: Adult Strongylocentrotus purpuratus sea urchins were obtained from Pacific BioMarine, and their embryos were cultured to the early pluteus stage in artificial sea water at 15° C. SU-ECM were prepared from them by treatment with nonionic detergent and strerilized by dilution in the appropriate media.
Cells were harvested by rinsing in Hanks' balanced salt solution, followed by brief treatment with 0.25% trypsin, 0.02% EDTA, and pelleting and resuspension in the appropriate medium with or without 5% FCS at a density of about 50,000 cells per ml. When appropriate, purified bovine plasma fibronectin (Sigma), purified 120 kDa chymotryptic fragment (Gibco BRL), PHSRN (SEQ ID NO:1) or PHSCN (SEQ ID NO:86) peptides (synthesized at the Biomedical Research Core Facilities of the University of Michigan), or GRGDSP (SEQ ID NO:83) or GRGESP (SEQ ID NO:84) peptides (Gibco BRL) were added to the resuspended cells prior to placement of the cells on SU-ECM. In each well of a plate used for an invasion assay, SU-ECM were placed in 0.5 ml of the appropriate medium, and 0.5 ml of the resuspended cells dropped on their exterior surfaces. Invasion assays were incubated 1 to 16 hours prior to assay. If some circumstances, invasion assays were fixed in phosphate-buffered saline (PBS) with 2% formaldehyde for 5 minutes at room temperature, then rinsed into PBS.
Invasion assays were coded and scored blindly by microscopic examination under phase contrast at 200- and 400-fold magnification. Each cell contacting an SU-ECM was scored for its position relative to the exterior or interior surfaces. A cell was judged to have invaded if it was located on an interior surface below the focal plane passing through the upper surface of the SU-ECM, but above the focal plane passing through its lower surface. The minimum viability of the cells in each assay was always ascertained at the time of assay by determining the fraction of spread, adherent cells on the bottom of each well scored.
An invasion frequency is defined as the fraction of cells in contact with basement membranes which were located in their interiors at the time of assay. Thus, an invasion frequency of 1 denotes invasion by 100% of the cells in contact with basement membranes. Invasion frequencies were determined multiple times for each cell type assayed. For each type of cell assayed the mean and standard deviation of the invasion frequencies were calculated.
The result of adding a varying concentration of the PHSCN (SEQ ID NO:86) peptide to PHSRN-induced (SEQ ID NO:1) MLL cells in serum free media is shown in FIG. 7B, where 100 ng per ml of PHSRN (SEQ ID NO:1) was used to induce invasion.
The procedure described in Example 10, was employed using SU-ECM substrates in 10% FCS and PHS(hC)N (SEQ ID NO:85) instead of PHSCN (SEQ ID NO:86). The result of adding varying concentrations of the PHS(hC)N (SEQ ID NO:85) peptide to serum-induced MLL cells indicates this peptide also has an inhibitory affect on cell invasion (see FIG. 8).

[3] = system: normal human mammary epithelial cells; test: SU-ECM invasion assay, normal human mammary epithelial cells; assay type: cell-based; conditions: 10% FCS, 100 ng per ml PHSRN, FIG. 5B
Protocol: (§1) Adult Strongylocentrotus purpuratus sea urchins were obtained from Pacific BioMarine, and their embryos were cultured to the early pluteus stage in artificial sea water at 15° C. SU-ECM were prepared from them by treatment with nonionic detergent and strerilized by dilution in the appropriate media. […]
(§2) Invasion assays were coded and scored blindly by microscopic examination under phase contrast at 200- and 400-fold magnification. Each cell contacting an SU-ECM was scored for its position relative to the exterior or interior surfaces. […] The minimum viability of the cells in each assay was always ascertained at the time of assay by determining the fraction of spread, adherent cells on the bottom of each well scored.
(§3) An invasion frequency is defined as the fraction of cells in contact with basement membranes which were located in their interiors at the time of assay. […] Invasion frequencies were determined multiple times for each cell type assayed. For each type of cell assayed the mean and standard deviation of the invasion frequencies were calculated. […]

[4] = system: metastatic DU-145 prostate cancer cells; test: SU-ECM invasion assay, DU-145 prostate cancer cells; assay type: cell-based, human; conditions: for inhibition of serum-induced invasion of SU-ECM: DU-145, 10% serum, FIG. 6A; for inhibition of PHSRN-induced invasion of SU-ECM: DU-145, serum-free medium, 100 ng per ml PHSRN, FIG. 6B
[5] = system: normal human prostate epithelial cells; test: SU-ECM invasion assay, normal human prostate epithelial cells; assay type: cell-based; conditions: 10% FCS, 100 ng per ml PHSRN, FIG. 6B
Protocol: as §1, §2, §3

Pro-His-Ser-Cys-Asn (PHSCN)
clotting of peptide-treated blood [1]: clot very slowly | inhibition of PHSRN-induced invasion of SU-ECM ([2]; higher concentrations): almost complete inhibition | inhibition of PHSRN-induced invasion of SU-ECM ([2]; low concentrations): substantial inhibitory affect | inhibition of serum-induced invasion of SU-ECM ([2]; serum-induced, I microgram per ml peptide, FIG. 7A): complete inhibition of invasion | inhibition of PHSRN-induced invasion of SU-ECM ([3]; higher concentrations): almost complete inhibition | inhibition of PHSRN-induced invasion of SU-ECM ([3]; low concentrations): substantial inhibitory affect | inhibition of serum-induced invasion of SU-ECM ([4]; relatively high concentrations): complete inhibition | inhibition of serum-induced invasion of SU-ECM ([4]; relatively low concentrations): substantial inhibitory affect | inhibition of PHSRN-induced invasion of SU-ECM ([4]; higher concentrations): almost complete inhibition | inhibition of PHSRN-induced invasion of SU-ECM ([4]; low concentrations): substantial inhibitory affect | inhibition of PHSRN-induced invasion of SU-ECM ([5]; higher concentrations): almost complete inhibition | inhibition of PHSRN-induced invasion of SU-ECM ([5]; low concentrations): substantial inhibitory affect
